Reference: patent US11407748B2, “Substituted pyrido[1,2-a]pyrimidines and pyrazino[1,2-a]pyrimidines for enhancing AMPA receptor function” (Takeda Pharmaceutical Company Limited, priority 2017, dated 2022)

target: T1, hGluR1 flip (Homo sapiens, UniProt P42261); experiment: AMPA receptor function-enhancing activity using calcium influx as index; format: cell-based; settings: test compound 30 μM with 3 mM glutamic acid; CHO-K1/GluR1 flip/stargazin-expressing cells; 100% = 3 mM glutamic acid + 300 μM cyclothiazide, 0% = 3 mM glutamic acid alone
T1 construct: expressed in transfected cells; host or cells: CHO-K1
From the text: Experimental Example 1 Measurement Method of AMPA Receptor Function-Enhancing Activity of Compound Using Calcium Influx as Index
(1) Construction of Expression Gene
Human GluR^1 flip cDNA was amplified by PCR method using forward primer […] (SEQ ID NO: 1) and reverse primer […] (SEQ ID NO: 2) artificially synthesized using human brain-derived cDNA (BD Bioscience) as a template. The amplified product was digested with restriction enzymes EcoRI, NotI (TAKARA SHUZO CO. LTD.) and incorporated into the same site of pcDNA3.1 (+) (Invitrogen) to construct pcDNA3.1(+)/human GluR1 flip gene. Human stargazin cDNA was amplified by PCR method using forward primer […] (SEQ ID NO: 3) and reverse primer […] (SEQ ID NO: 4) artificially synthesized using human hippocampus cDNA as a template. The amplified product was digested with restriction enzymes XhoI, BamHI (TAKARA SHUZO CO. LTD.) and incorporated into the same site of pcDNA3.1(−) (Invitrogen) to construct pcDNA3.1 Zeo(−)/human stargazing gene.
(2) Construction of GluR1 Flip/Stargazin Expressing Cell
CHO-K1 cells passaged in a culture medium (Ham's F12 medium (Invitrogen) added with 10% inactivated fetal bovine serum (Morgate) and penicillin, streptomycin (Invitrogen)) were detached using 0.05% trypsin and 0.53 mM EDTA (Invitrogen) diluted with D-PBS(−). The detached cells were suspended in a culture medium, and recovered by centrifugation at 1,000 rpm. The recovered cells were re-suspended in D-PBS(−) and added into 0.4 cm electroporation cuvette (BioRad). pcDNA3.1(+)/human GluR1 flip gene (5 μg) and pcDNA3.1 Zeo(−)/human stargazin gene (15 μg) were added, and introduced into CHO-K1 cells under the conditions of 950 μFd, […] and using Gene Pulser II (BioRad). The introduced cells were cultured overnight in a culture medium. The next day, using a selection medium (culture medium added with zeocin (Invitrogen) at 250 μg/mL), the cells were plated in a 96 well plate at 250 cells/well. The clones showing drug resistance were selected, and GluR1 flip/stargazin expression clones were selected by an assay method shown below using calcium influx as an index.
(3) Measurement Method of AMPA Receptor Function-Enhancing Activity of Compound, Using Calcium Influx as an Index
CHO-K1/GluR1 flip/stargazin-expressing cells were plated on a 384 well black bottom transparent plate, and cultured for 2 days in a CO2 incubator (SANYO ELECTRIC Co. Ltd.) at 37° C. The medium of the cell plate was removed. A calcium indicator (Calcium5 Assay Kit, Molecular Devices) was diluted with an assay buffer (HESS (Thermo Fisher Scientific), 0.1% BSA (Merck Millipoer) and 10 mM HEPES (Thermo Fisher Scientific)), and 1.25 mM probenecid (Dojindo Laboratories) was added thereto. The mixture prepared above was added at 30 μL/well (100 μL/well in case of 96 wells) to the well, and the well was left standing in 37° C., CO2 incubator for 1 hr. The cell plate was set in CellLux (PerkinElmer), a mixture (15 μL) (50 μL/well in case of 96 wells) of 9 mM glutamic acid (final concentration 3 mM) diluted with an assay buffer and a test compound (test compound concentration 30 μM) was added thereto, and variation in the amount of fluorescence was measured for 3 min. The variation of fluorescence level of a well added with final concentration 3 mM of glutamic acid and 300 μM cyclothiazide (TOCRIS) was defined as 100%, the variation of fluorescence level of a well added with final concentration 3 mM of glutamic acid alone was defined as 0%, and the activity of the compound was calculated by the following formula. activity (%)=(X−C)/(T−C)×100 • T: variation of fluorescence level of well added with final concentration 3 mM of glutamic acid and 300 μM cyclothiazide • C: variation of fluorescence level of well added with final concentration 3 mM of glutamic acid alone • X: variation of fluorescence level of well added with test compound

T1 sequence (P42261 19-906 isoform P42261-2 limits assumed): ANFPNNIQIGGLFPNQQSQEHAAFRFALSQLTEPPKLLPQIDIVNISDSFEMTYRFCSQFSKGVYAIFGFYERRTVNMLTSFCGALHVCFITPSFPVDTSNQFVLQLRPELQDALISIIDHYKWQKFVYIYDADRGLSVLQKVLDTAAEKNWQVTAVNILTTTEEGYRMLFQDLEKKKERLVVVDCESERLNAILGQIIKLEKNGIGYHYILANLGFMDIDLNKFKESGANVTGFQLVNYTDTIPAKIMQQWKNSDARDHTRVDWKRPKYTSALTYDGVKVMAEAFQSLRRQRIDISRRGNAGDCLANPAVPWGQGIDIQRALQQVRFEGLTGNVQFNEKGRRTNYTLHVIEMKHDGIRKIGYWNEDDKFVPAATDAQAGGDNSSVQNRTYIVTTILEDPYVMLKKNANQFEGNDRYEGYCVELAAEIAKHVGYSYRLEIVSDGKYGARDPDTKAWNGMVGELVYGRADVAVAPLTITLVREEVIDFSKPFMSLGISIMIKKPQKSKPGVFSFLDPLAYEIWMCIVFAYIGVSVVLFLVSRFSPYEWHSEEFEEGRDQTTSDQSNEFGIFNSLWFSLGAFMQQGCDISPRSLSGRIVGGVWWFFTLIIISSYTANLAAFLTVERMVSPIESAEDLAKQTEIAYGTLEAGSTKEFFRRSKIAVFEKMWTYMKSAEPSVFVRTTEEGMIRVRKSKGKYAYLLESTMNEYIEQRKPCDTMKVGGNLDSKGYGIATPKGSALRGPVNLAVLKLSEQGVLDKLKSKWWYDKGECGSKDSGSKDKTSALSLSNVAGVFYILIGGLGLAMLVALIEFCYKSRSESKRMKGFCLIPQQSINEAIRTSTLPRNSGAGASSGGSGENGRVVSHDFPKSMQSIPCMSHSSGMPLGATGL
T1 sequence (Q9Y698 whole entry partner): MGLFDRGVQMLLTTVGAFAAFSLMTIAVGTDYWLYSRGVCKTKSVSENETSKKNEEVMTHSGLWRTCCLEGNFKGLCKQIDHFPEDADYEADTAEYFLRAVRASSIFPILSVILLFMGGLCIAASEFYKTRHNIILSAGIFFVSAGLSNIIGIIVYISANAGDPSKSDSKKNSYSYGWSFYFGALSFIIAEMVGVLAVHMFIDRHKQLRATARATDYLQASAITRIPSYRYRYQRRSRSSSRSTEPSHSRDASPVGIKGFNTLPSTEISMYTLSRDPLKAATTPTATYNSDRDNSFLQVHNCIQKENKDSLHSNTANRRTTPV

activation at 30 µM | SMILES
77.3% | O=C(c1ccc(-c2cccn3c(=O)c(Br)c(C(F)(F)F)nc23)cc1F)N1CCOCC1 [Example 46, 3-bromo-9-(3-fluoro-4-(morpholin-4-ylcarbonyl)phenyl)-2-(trifluoromethyl)-4H-pyrido[1,2-a]pyrimidin-4-one]
71.6% | C[C@@H]1CN(C(=O)c2ccc(-c3cccn4c(=O)c(Br)c(C(F)(F)F)nc34)cc2)CCO1 [Example 49, 3-bromo-9-(4-(((2R)-2-methylmorpholin-4-yl)carbonyl)phenyl)-2-(trifluoromethyl)-4H-pyrido[1,2-a]pyrimidin-4-one]
75.1% | O=C(N[C@H]1CCOC1)c1ccc(-c2cccn3c(=O)c(Br)c(C(F)(F)F)nc23)cc1 [Example 55, 4-(3-bromo-4-oxo-2-(trifluoromethyl)-4H-pyrido[1,2-a]pyrimidin-9-yl)-N-((3S)-tetrahydrofuran-3-yl)benzamide]
78.7% | O=C(NC1CCOCC1)c1ccc(-c2cccn3c(=O)c(Br)c(C(F)(F)F)nc23)cc1 [Example 57, 4-(3-bromo-4-oxo-2-(trifluoromethyl)-4H-pyrido[1,2-a]pyrimidin-9-yl)-N-(tetrahydro-2H-pyran-4-yl)benzamide]
77.1% | O=C(c1ccc(-c2cccn3c(=O)c(Br)c(C(F)(F)F)nc23)cc1)N1CCC1 [Example 61, 9-(4-(azetidin-1-ylcarbonyl)phenyl)-3-bromo-2-(trifluoromethyl)-4H-pyrido[1,2-a]pyrimidin-4-one]
76.9% | O=C(c1ccc(-c2cccn3c(=O)c(Br)c(C(F)(F)F)nc23)cc1)N1CCCC1 [Example 62, 3-bromo-9-(4-(pyrrolidin-1-ylcarbonyl)phenyl)-2-(trifluoromethyl)-4H-pyrido[1,2-a]pyrimidin-4-one]
74.6% | O=C(c1ccc(-c2cccn3c(=O)c(Br)c(C(F)(F)F)nc23)cc1)N1CCc2cccnc21 [Example 65, 3-bromo-9-(4-(2,3-dihydro-1H-pyrrolo[2,3-b]pyridin-1-ylcarbonyl)phenyl)-2-(trifluoromethyl)-4H-pyrido[1,2-a]pyrimidin-4-one]
73.5% | Cc1c(C(F)(F)F)nc2c(-c3ccc(C(=O)N4CCO[C@@H](C)C4)cc3)cccn2c1=O [Example 67, 3-methyl-9-(4-(((2S)2-methylmorpholin-4-yl)carbonyl)phenyl)-2-(trifluoromethyl)-4H-pyrido[1,2-a]pyrimidin-4-one]
88.4% | Cc1c(C(F)(F)F)nc2c(-c3ccc(C(=O)N4CCOC(F)(F)C4)cc3)cccn2c1=O [Example 68, 9-(4-((2,2-difluoromorpholin-4-yl)carbonyl)phenyl)-3-methyl-2-(trifluoromethyl)-4H-pyrido[1,2-a]pyrimidin-4-one]
79.9% | Cc1c(C(F)(F)F)nc2c(-c3ccc(C(=O)N4CCCOCC4)cc3)cccn2c1=O [Example 69, 3-methyl-9-(4-(1,4-oxazepan-4-ylcarbonyl)phenyl)-2-(trifluoromethyl)-4H-pyrido[1,2-a]pyrimidin-4-one]
71.4% | O=C(NCC1CC1)c1ccc(-c2cccn3c(=O)c(Br)c(C(F)(F)F)nc23)cc1F [Example 70, 4-(3-bromo-4-oxo-2-(trifluoromethyl)-4H-pyrido[1,2-a]pyrimidin-9-yl)-N-(cyclopropylmethyl)-2-fluorobenzamide]
72.3% | O=C(c1ccc(-c2cccn3c(=O)c(Br)c(C(F)(F)F)nc23)cc1F)N1CCOC(F)(F)C1 [Example 71, 3-bromo-9-(4-((2,2-difluoromorpholin-4-yl)carbonyl)-3-f1uorophenyl)-2-(trifluoromethyl)-4H-pyrido[1,2-a]pyrimidin-4-one]
76.4% | COCCNC(=O)c1ccc(-c2cccn3c(=O)c(Br)c(C(F)(F)F)nc23)cc1F [Example 72, 4-(3-bromo-4-oxo-2-(trifluoromethyl)-4H-pyrido[1,2-a]pyrimidin-9-yl)-2-fluoro-N-(2-methoxyethyl)benzamide]
87.9% | C[C@H]1CN(C(=O)c2ccc(-c3cccn4c(=O)c(Br)c(C(F)(F)F)nc34)cc2F)CCO1 [Example 73, 3-bromo-9-(3-fluoro-4-(((2S)-2-methylmorpholin-4-yl)carbonyl)phenyl)-2-(trifluoromethyl)-4H-pyrido[1,2-a]pyrimidin-4-one]
88.2% | C[C@@H]1CN(C(=O)c2ccc(-c3cccn4c(=O)c(Br)c(C(F)(F)F)nc34)cc2F)CCO1 [Example 74, 3-bromo-9-(3-fluoro-4-(((2R)-2-methylmorpholin-4-yl)carbonyl)phenyl)-2-(trifluoromethyl)-4H-pyrido[1,2-a]pyrimidin-4-one]
99.1% | O=C(c1ccc(-c2cccn3c(=O)c(Br)c(C(F)(F)F)nc23)cc1F)N1CCCOCC1 [Example 75, 3-bromo-9-(3-fluoro-4-(1,4-oxazepan-4-ylcarbonyl)phenyl)-2-(trifluoromethyl)-4H-pyrido[1,2-a]pyrimidin-4-one]
93.3% | Cc1c(C(F)(F)F)nc2c(-c3ccc(C(=O)N4CCCOCC4)c(F)c3)cccn2c1=O [Example 76, 9-(3-fluoro-4-(1,4-oxazepan-4-ylcarbonyl)phenyl)-3-methyl-2-(trifluoromethyl)-4H-pyrido[1,2-a]pyrimidin-4-one]
94.2% | O=C(c1ccc(-c2cccn3c(=O)cc(C(F)(F)F)nc23)cc1F)N1CCc2cccnc21 [Example 78, 9-(4-(2,3-dihydro-1H-pyrrolo[2,3-b]pyridin-1-ylcarbonyl)-3-fluorophenyl)-2-(trifluoromethyl)-4H-pyrido[1,2-a]pyrimidin-4-one]
79.6% | O=C(c1ccc(-c2cccn3c(=O)c(Br)c(C(F)(F)F)nc23)cc1F)N1CCc2cccnc21 [Example 79, 3-bromo-9-(4-(2,3-dihydro-1H-pyrrolo[2,3-b]pyridin-1-ylcarbonyl)-3-fluorophenyl)-2-(trifluoromethyl)-4H-pyrido[1,2-a]pyrimidin-4-one]
90.6% | Cc1c(C(F)(F)F)nc2c(-c3ccc(C(=O)N4CCc5cccnc54)c(F)c3)cccn2c1=O [Example 80, 9-(4-(2,3-dihydro-1H-pyrrolo[2,3-b]pyridin-1-ylcarbonyl)-3-fluorophenyl)-3-methyl-2-(trifluoromethyl)-4H-pyrido[1,2-a]pyrimidin-4-one]
95.1% | O=C(c1ccc(-c2cccn3c(=O)c(Cl)c(C(F)(F)F)nc23)cc1F)N1CCCOCC1 [Example 81, 3-chloro-9-(3-fluoro-4-(1,4-oxazepan-4-ylcarbonyl)phenyl)-2-(trifluoromethyl)-4H-pyrido[1,2-a]pyrimidin-4-one]
81.4% | CN(C(=O)c1ccc(-c2cccn3c(=O)cc(C(F)(F)F)nc23)cc1F)C1CCOCC1 [Example 82, 2-fluoro-N-methyl-4-(4-oxo-2-(trifluoromethyl)-4H-pyrido[1,2-a]pyrimidin-9-yl)-N-(tetrahydro-2H-pyran-4-yl)benzamide]
103% | Cc1c(C(F)(F)F)nc2c(-c3ccc(C(=O)N(C)C4CCOCC4)c(F)c3)cccn2c1=O [Example 83, 2-fluoro-N-methyl-4-(3-methyl-4-oxo-2-(trifluoromethyl)-4H-pyrido[1,2-a]pyrimidin-9-yl)-N-(tetrahydro-2H-pyran-4-yl)benzamide]
